{
  "source": "paper PMC10147046",
  "about": "“Assessment of Various Food Proteins as Structural Materials for Delivery of Hydrophobic Polyphenols Using a Novel Co-Precipitation Method” (Molecules, 2023)",
  "key": {"[1]": {"assay": "Solubility of the powders in water (phosphate buffer), HPLC quantification", "type": "physicochemical", "details": "for Increase in solubility of co-precipitate compared to intrinsic (untreated) solubility: polyphenol co-precipitated with protein and trehalose vs untreated, phosphate buffer pH 7.0; for solubility at 24 h: aqueous buffer, thermodynamic from solid", "procedure": "To measure the amount of the polyphenol entrapped inside the NaCas, SPI, and WPI precipitates (entrapment efficiency), the concentration of each polyphenol in the supernatants was determined by high-performance liquid chromatography (HPLC) following different methods (depending on the polyphenol). The HPLC instrument was equipped with a UV/visible diode array detector (Agilent Technologies, 1200 Series, Santa Clara, CA, USA). The column was a reverse-phase PrevailTM C18 with dimensions of 4.6 cm × 150 mm and 5 µm particle size (Grace Alltech, Columbia, MD, USA). The composition and conditions of the mobile phase varied based on the method used for the quantification of each polyphenol. […] The sample injection volume for all cases was 20 µL. Different polyphenols were detected at different wavelengths and different retention times; e.g., naringenin and rutin were detected at 10.15 and 4.8 min, respectively. For the calibration of the HPLC column and quantification of each polyphenol in the samples, standard solutions of various concentrations of pure polyphenols (94 to 98%) in the mobile phase were used. […] Thermo Scientific, Waltham, MA, USA) before injecting them into the HPLC column. […] The dispersibility of the lyophilized powders and the untreated samples was measured according to the method from Ji et al.. For this purpose, we used a Malvern Mastersizer 2000 (Malvern Instruments Ltd., Worcestershire, UK), which was equipped with a 4 mW He–Ne laser operating apparatus. […] To avoid artifacts (large lumps) from the initial dispersion, the Time 0 min measurement was removed, and the data from 2 to 60 min were collected. A separate normalization was applied to the obscuration indices across the dispersion period for each sample by dividing each index by the maximum index. Finally, the volume distribution data were multiplied by the normalized obscuration index at each time point."}, "[2]": {"assay": "Dispersibility in water: particle size distribution over time (Malvern Mastersizer 2000)", "type": "physicochemical", "details": "for Dispersibility of untreated polyphenol: untreated powder, phosphate buffer pH 7.0, over 60 min; for Size of additional significant particle population after treatment: distribution at least bi-modal; for Particle size reached over time, WPI co-precipitates: over 60 min; for Particle size after treatment in the absence of trehalose: polyphenol precipitate without protein and without trehalose", "procedure": "The particle size distribution of untreated (control) polyphenols vs. the polyphenols co-precipitated with NaCas, SPI, and WPI after dispersion in phosphate buffer (pH 7.0) is presented in Figure 4. As stated in Section 3.6, in the case of the current research, we measured dispersibility based on the decrease in the size of particles dispersed in the aqueous medium over time.\nThe dispersibility of the lyophilized powders and the untreated samples was measured according to the method from Ji et al.. For this purpose, we used a Malvern Mastersizer 2000 (Malvern Instruments Ltd., Worcestershire, UK), which was equipped with a 4 mW He–Ne laser operating apparatus. To start with, about 30 mg of each powder was added to the dispersion unit containing phosphate buffer (10 mM NaH2PO4, pH 7.0), and this mixture was stirred (2000 rpm) for 60 min. The particle size distribution obscuration values of each sample were read at 2 min intervals and a wavelength of 632.8 nm. To avoid artifacts (large lumps) from the initial dispersion, the Time 0 min measurement was removed, and the data from 2 to 60 min were collected. A separate normalization was applied to the obscuration indices across the dispersion period for each sample by dividing each index by the maximum index. Finally, the volume distribution data were multiplied by the normalized obscuration index at each time point."}, "[3]": {"details": "source not given; cited from earlier work"}, "[4]": {"details": "reference compounds of Table 1; one cell merged over all four solubility columns; no source or measurement printed; cited from earlier work"}, "[5]": {"set-up": "method as in PMID 30724197", "details": "cited from earlier work"}, "[6]": {"set-up": "method as in PMID 35056844", "details": "rutin dissolved in solution maintained at pH 11.0 for 30 min; cited from earlier work"}, "[7]": {"details": "untreated (commercial) polyphenol, phosphate buffer pH 7.0, 25 °C"}, "[8]": {"details": "polyphenol precipitate without protein, absence of trehalose"}},
  "data": [
    {"compound": "Curcumin", "values": [
      {"measurement": "Increase in solubility of co-precipitate compared to intrinsic (untreated) solubility", "setting": "[1]", "result": "~10", "unit": "fold"},
      {"measurement": "Solubility (Untreated)", "setting": "[1]; [7]", "result": 8, "unit": "µg/mL"},
      {"measurement": "Size of minor particle population after treatment", "setting": "[2]; [8]", "result": "~ 160 μm"},
      {"measurement": "Dispersibility of untreated polyphenol", "setting": "[2]", "result": "None of the untreated forms of rutin, naringenin, hesperidin, and curcumin (Figure 4) showed any significant dispersibility over 60 min"},
      {"measurement": "Solubility in ethanol", "setting": "[3]", "result": "~10000", "unit": "µg/mL"}
    ]},
    {"compound": "Oc1cc(O)c2c(c1)O[C@H](c1ccc(O)c(O)c1)[C@@H](O)C2", "note": "[Catechin, (+)-catechin]", "values": [
      {"measurement": "solubility at 24 h", "setting": "[1]; [7]", "result": 1.5, "unit": "µg/mL"},
      {"measurement": "Increase in solubility of co-precipitate compared to intrinsic (untreated) solubility", "setting": "[1]", "result": "~10", "unit": "fold"},
      {"measurement": "Size of additional significant particle population after treatment", "setting": "[2]; [8]", "result": "~0.1", "unit": "µm"},
      {"measurement": "Dispersibility of untreated polyphenol", "setting": "[2]", "result": "showed some dispersibility"},
      {"measurement": "Solubility in ethanol", "setting": "[3]", "result": "~100000", "unit": "µg/mL"}
    ]},
    {"compound": "O=C1C[C@@H](c2ccc(O)cc2)Oc2cc(O)cc(O)c21", "note": "[Naringenin, (S)-naringenin]", "values": [
      {"measurement": "solubility at 24 h", "setting": "[1]; [7]", "result": 2, "unit": "µg/mL"},
      {"measurement": "Particle size reached over time, WPI co-precipitates", "setting": "[2]", "result": "less than 1 μm"},
      {"measurement": "Particle size after treatment in the absence of trehalose", "setting": "[2]", "result": "~ 6 μm"},
      {"measurement": "Size of additional significant particle population after treatment", "setting": "[2]; [8]", "result": "~0.1", "unit": "µm"},
      {"measurement": "Dispersibility of untreated polyphenol", "setting": "[2]", "result": "None of the untreated forms of rutin, naringenin, hesperidin, and curcumin (Figure 4) showed any significant dispersibility over 60 min"},
      {"measurement": "Solubility in ethanol", "setting": "[3]", "result": "~1000", "unit": "µg/mL"}
    ]},
    {"compound": "COc1ccc([C@@H]2CC(=O)c3c(O)cc(O[C@@H]4O[C@H](CO[C@@H]5O[C@@H](C)[C@H](O)[C@@H](O)[C@H]5O)[C@@H](O)[C@H](O)[C@H]4O)cc3O2)cc1O", "note": "[Hesperidin]", "values": [
      {"measurement": "solubility at 24 h", "setting": "[1]; [7]", "result": 2, "unit": "µg/mL"},
      {"measurement": "Particle size after treatment in the absence of trehalose", "setting": "[2]", "result": 30, "unit": "μm"},
      {"measurement": "Particle size, untreated polyphenol", "setting": "[2]; untreated powder dispersed in phosphate buffer", "result": "~ 60 μm"},
      {"measurement": "Dispersibility of untreated polyphenol", "setting": "[2]", "result": "None of the untreated forms of rutin, naringenin, hesperidin, and curcumin (Figure 4) showed any significant dispersibility over 60 min"},
      {"measurement": "Solubility in ethanol", "setting": "[3]", "result": "~1000", "unit": "µg/mL"}
    ]},
    {"compound": "Oc1ccc(-c2ccc(O)cc2O)c(O)c1", "note": "[[1,1′-Biphenyl]-2,2′,4,4′-tetrol]", "values": [
      {"measurement": "Solubility (reference compounds, in words)", "setting": "[4]", "result": "low?"}
    ]},
    {"compound": "O=c1c(-c2ccc(O)cc2)coc2cc(O)ccc12", "note": "[daidzein]", "values": [
      {"measurement": "Enhancement of daidzein solubility", "setting": "[5]; WPI nanoparticles formed in the presence of daidzein", "result": "at least 2 fold"},
      {"measurement": "Stability", "setting": "[5]; WPI-daidzein nanoparticles, 4 °C", "result": "stable at 4 °C for at least two months"}
    ]},
    {"compound": "C[C@@H]1O[C@@H](OC[C@H]2O[C@@H](Oc3c(-c4ccc(O)c(O)c4)oc4cc(O)cc(O)c4c3=O)[C@H](O)[C@@H](O)[C@@H]2O)[C@H](O)[C@H](O)[C@H]1O", "note": "[Rutin]", "values": [
      {"measurement": "solubility at 24 h", "setting": "[1]; [7]", "result": 110, "unit": "µg/mL"},
      {"measurement": "Particle size reached over time, WPI co-precipitates", "setting": "[2]", "result": "less than 1 μm"},
      {"measurement": "Size of smaller particles favoured over time, NaCas co-precipitate", "setting": "[2]; co-precipitate with NaCas, redistribution of particle size over time", "result": 0.1, "unit": "μm"},
      {"measurement": "Size of additional significant particle population after treatment", "setting": "[2]; [8]", "result": "~0.1", "unit": "µm"},
      {"measurement": "Effect of treatment (no protein) on dispersibility", "setting": "[2]; treated polyphenol precipitates with or without trehalose", "result": "Treatment improved the dispersibility only of rutin"},
      {"measurement": "Dispersibility of untreated polyphenol", "setting": "[2]", "result": "None of the untreated forms of rutin, naringenin, hesperidin, and curcumin (Figure 4) showed any significant dispersibility over 60 min"},
      {"measurement": "Solubility in ethanol", "setting": "[3]", "result": "about 4 mg/mL"},
      {"measurement": "Degradation", "setting": "[6]", "result": "approximately 10%"}
    ]}
  ]
}
